The source of these data is patent US20240174634A1, “Aldehyde Dehydrogenase Inhibitors and Their Therapeutic Use” (priority 2020, published 2024).

pIC50: −log10 of the molar value.

For this test, the target named is T1, ALDH2 (Homo sapiens, UniProt P05091).
T1 sequence (P05091 18-517): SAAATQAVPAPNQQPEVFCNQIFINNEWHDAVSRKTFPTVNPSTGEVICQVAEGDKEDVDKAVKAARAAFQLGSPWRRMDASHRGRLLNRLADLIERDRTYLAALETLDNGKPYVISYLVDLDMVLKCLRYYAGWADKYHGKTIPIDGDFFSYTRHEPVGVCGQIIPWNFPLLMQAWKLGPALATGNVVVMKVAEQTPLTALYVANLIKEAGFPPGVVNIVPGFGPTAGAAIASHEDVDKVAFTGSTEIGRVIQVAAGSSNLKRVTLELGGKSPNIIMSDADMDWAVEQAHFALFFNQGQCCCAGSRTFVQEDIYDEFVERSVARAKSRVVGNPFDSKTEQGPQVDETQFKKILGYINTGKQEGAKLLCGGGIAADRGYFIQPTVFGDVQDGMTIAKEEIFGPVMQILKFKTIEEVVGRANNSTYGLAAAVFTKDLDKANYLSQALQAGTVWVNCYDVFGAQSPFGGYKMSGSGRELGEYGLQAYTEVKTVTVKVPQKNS
As to the kind of experiment: Selectivity biochemical assay, NAD(P)H-Glo Detection System. As to the method:
Materials: ALDH2 was purchased from Abnova. Tris(hydroxymethyl)aminomethane (Tris) was purchased from MP Biomedicals. TCEP, ethylenediaminetetraacetic acid (EDTA), propionaldehyde, DMSO and Tween-20 were purchased from Sigma. Nicotinamide adenine dinucleotide (NAD) was obtained from Abcam. The NAD(P)H-Glo™ Detection System was purchased from Promega. White, non-binding surface, 384 well plates were supplied by Corning (#3574).
Method: Inhibition of ALDH1A3 was assessed using the NAD(P)H-Glo™ Detection System (Cat. No. G9062) from Promega. This assay detects the production of NADH from NAD by ALDH1A3 via the coupled enzymatic conversion of a proluciferin reductase substrate to generate a luminescent signal. Inhibition of ALDH1A3 by small molecule inhibitors will result in reduction or abrogation of luminescence signal increase above background. Inhibition of ALDH1A1, ALDH1A2 and ALDH2 (selectivity assays) were assessed using the same assay.
Compounds were dosed into Corning 384 well assay plates using an Echo acoustic dispenser to give 10 point curves in a 3-fold dilution series. Compounds were dispensed from a 20 mM DMSO stock and initially screened at a top concentration of 20 μM (ALDH1A3) or 250 μM (ALDH1A1, ALDH1A2 & ALDH2). Enzyme was added to the plate in a 5 μL volume, according to the final concentrations in table 1 below, and pre-incubated with compound for 30 minutes at room temperature before the addition of 5 μL of the substrate (propionaldehyde) and cofactor (NAD), to effect final concentrations equal to the Km as shown in Table 1. The assay buffer used consisted of 40 mM Tris for 1A1 (pH 7.6), 1A2 (pH 7.6) and 1A3 (pH 9.0) and 10 mM Tris for ALDH2 (pH 8.0) supplemented with 1 mM TCEP, 0.01% Tween-20, 0.1 mM EDTA. The reaction mix was incubated at 26° C. on a shaking incubator for 30 minutes before being stopped by the addition of 10 μL of the Promega detection reagent and 100×IC50 of inhibitors of the respective isoforms. After stopping the reaction the plate was incubated for 60 minutes at room temperature and the luminescence signal read on a PheraStar FS microplate reader (BMG Labtech) and resulting IC50 values were calculated using Dotmatics software.
Enzyme, substrate and cofactor concentrations were selected to ensure the reaction ran under initial velocity conditions.
The term pIC50 denotes the negative decadic logarithm of the IC50, by convention in mol/L. Higher therefore signals a small IC50. Compound `O=C1CCc2cc(OCCN3CCCC3c3ccncc3)ccc2N1` (stereo not drawn) [ALDHI-2004, 6-[2-[2-(4-pyridyl)pyrrolidin-1-yl]ethoxy]-3,4-dihydro-1H-quinolin-2-one] gave a pIC50 of no more than 4.00.
With `O=C1CCc2cc(OCCN3CCCC3c3cccs3)ccc2N1` (stereo not drawn) [ALDHI-2013, 6-[2-[2-(2-thienyl)pyrrolidin-1-yl]ethoxy]-3,4-dihydro-1H-quinolin-2-one], the pIC50 is no more than 4.00.
With `O=C1CCc2cc(NC(=O)c3ncsc3-c3ccsc3)ccc2N1` [ALDHI-1011, N-(2-oxo-3,4-dihydro-1H-quinolin-6-yl)-5-(3-thienyl)thiazole-4-carboxamide], the pIC50 is no more than 4.00.
To `Cc1noc(-c2ccccc2C(=O)Nc2ccc3c(c2)CCC(=O)N3)n1` [ALDHI-1008, 2-(3-methyl-1,2,4-oxadiazol-5-yl)-N-(2-oxo-1,2,3,4-tetrahydroquinolin-6-yl)benzamide] belongs no more than 4.00; to `CN(C)c1nc(-c2cccc(F)c2)c(C(=O)Nc2ccc3c(c2)CCC(=O)N3)s1` [ALDHI-1002, 2-(dimethylamino)-4-(3-fluorophenyl)-N-(2-oxo-3,4-dihydro-1H-quinolin-6-yl)thiazole-5-carboxamide], no more than 4.00.
Next, `O=C1CCCc2cc(OCCN3CCCC3c3cccc(F)c3)ccc2N1` (stereo not drawn) [ALDHI-2020, 7-[2-[2-(3-fluorophenyl)pyrrolidin-1-yl]ethoxy]-1,3,4,5-tetrahydro-1-benzazepin-2-one]: no more than 4.00; `O=C1COc2cc(NC(=O)c3scnc3-c3cccc(F)c3)ccc2N1` [ALDHI-1016, 4-(3-fluorophenyl)-N-(3-oxo-4H-1,4-benzoxazin-7-yl)thiazole-5-carboxamide]: no more than 4.00.
Next, `O=C1CCc2cc(NC(=O)c3scnc3-c3cccs3)ccc2N1` [ALDHI-1023, N-(2-oxo-3,4-dihydro-1H-quinolin-6-yl)-4-(2-thienyl)thiazole-5-carboxamide]: no more than 4.00.
`O=C1CCc2cc(NC(=O)c3sc(N4CCOCC4)nc3-c3cccc(F)c3)ccc2N1` [ALDHI-1001, 4-(3-fluorophenyl)-2-morpholino-N-(2-oxo-3,4-dihydro-1H-quinolin-6-yl)thiazole-5-carboxamide]: the pIC50 is no more than 4.00.
Next, `O=C1CCc2cc(OCCN3CC(F)CC3c3cccc(F)c3)ccc2N1` (stereo not drawn) [ALDHI-2052, 6-[2-[4-fluoro-2-(3-fluorophenyl)pyrrolidin-1-yl]ethoxy]-3,4-dihydro-1H-quinolin-2-one]: no more than 4.00; `O=C1CCc2cc(NC(=O)c3sccc3-c3cccc(F)c3)ccc2N1` [ALDHI-1022, 3-(3-fluorophenyl)-N-(2-oxo-3,4-dihydro-1H-quinolin-6-yl)thiophene-2-carboxamide]: no more than 4.00.
To `Cn1cc(C2CCCN2CCOc2ccc3c(c2)SCC(=O)N3)cn1` (stereo not drawn) [ALDHI-2026, 7-[2-[2-(1-methylpyrazol-4-yl)pyrrolidin-1-yl]ethoxy]-4H-1,4-benzothiazin-3-one] belongs no more than 4.00; to `O=C1CCc2cc(NC(=O)c3sc(N4CCNCC4)nc3-c3cccc(F)c3)ccc2N1` [ALDHI-1005, 4-(3-fluorophenyl)-N-(2-oxo-3,4-dihydro-1H-quinolin-6-yl)-2-piperazin-1-yl-thiazole-5-carboxamide], no more than 4.00.
Next, `O=C1CCc2cc(OCCN3CCC3c3cccc(F)c3)ccc2N1` (stereo not drawn) [ALDHI-2021, 6-[2-[2-(3-fluorophenyl)azetidin-1-yl]ethoxy]-3,4-dihydro-1H-quinolin-2-one]: no more than 4.00; `O=C1CCc2cc(NC(=O)c3ccccc3-c3cccc(F)c3)ccc2N1` [ALDHI-1007, 3′-fluoro-N-(2-oxo-1,2,3,4-tetrahydroquinolin-6-yl)-[1,1′-biphenyl]-2-carboxamide]: no more than 4.00; `Cc1ccccc1C1CCCN1CCOc1ccc2c(c1)CCC(=O)N2` (stereo not drawn) [ALDHI-2012, 6-[2-[2-(o-tolyl)pyrrolidin-1-yl]ethoxy]-3,4-dihydro-1H-quinolin-2-one]: no more than 4.00.
For the compound `O=C1CCc2cc(OCCN3CCCC3c3ccccn3)ccc2N1` (stereo not drawn) [ALDHI-2006, 6-[2-[2-(2-pyridyl)pyrrolidin-1-yl]ethoxy]-3,4-dihydro-1H-quinolin-2-one], the pIC50 is no more than 4.00.
In turn, `Cc1cccc(-c2ncsc2C(=O)Nc2ccc3c(c2)CCC(=O)N3)c1` [ALDHI-1013, 4-(m-tolyl)-N-(2-oxo-3,4-dihydro-1H-quinolin-6-yl)thiazole-5-carboxamide] gave a pIC50 of no more than 4.00.
With `O=C1CCc2cc(OCCN3CC(F)(F)CC3c3cccc(F)c3)ccc2N1` (stereo not drawn) [ALDHI-2053, 6-[2-[4,4-difluoro-2-(3-fluorophenyl)pyrrolidin-1-yl]ethoxy]-3,4-dihydro-1H-quinolin-2-one], the pIC50 is no more than 4.00.
Next, `O=C1CCc2cc(OCCN3CCCC3c3ccc(F)cc3)ccc2N1` (stereo not drawn) [ALDHI-2003, 6-[2-[2-(4-fluorophenyl)pyrrolidin-1-yl]ethoxy]-3,4-dihydro-1H-quinolin-2-one]: 4.00 to 5.00; `Cc1cccc(C2CCCN2CCOc2ccc3c(c2)CCC(=O)N3)c1` (stereo not drawn) [ALDHI-2011, 6-[2-[2-(m-tolyl)pyrrolidin-1-yl]ethoxy]-3,4-dihydro-1H-quinolin-2-one]: no more than 4.00; `O=C1CCc2cc(OCCN3CCCC3c3cccc(F)c3)ccc2N1` (stereo not drawn) [ALDHI-2001, 6-[2-[2-(3-fluorophenyl)pyrrolidin-1-yl]ethoxy]-3,4-dihydro-1H-quinolin-2-one]: no more than 4.00.
Next, `CCC1Oc2cc(OCCN3CCCC3c3cccc(F)c3)ccc2NC1=O` (stereo not drawn) [ALDHI-2045, 2-ethyl-7-[2-[2-(3-fluorophenyl)pyrrolidin-1-yl]ethoxy]-4H-1,4-benzoxazin-3-one]: no more than 4.00; `O=c1ccc2cc(OCCN3CCCC3c3cccc(F)c3)ccc2[nH]1` (stereo not drawn) [ALDHI-2022, 6-[2-[2-(3-fluorophenyl)pyrrolidin-1-yl]ethoxy]-1H-quinolin-2-one]: no more than 4.00; `O=C1CCc2cc(NC(=O)c3cncnc3-c3cccc(F)c3)ccc2N1` [ALDHI-1018, 4-(3-fluorophenyl)-N-(2-oxo-3,4-dihydro-1H-quinolin-6-yl)pyrimidine-5-carboxamide]: no more than 4.00.
To `CN(CCOc1ccc2c(c1)CCC(=O)N2)Cc1cccnc1` [ALDHI-3010, 6-[2-[methyl(3-pyridylmethyl)amino]ethoxy]-3,4-dihydro-1H-quinolin-2-one] belongs no more than 4.00.
Compound `O=C1CCc2cc(NC(=O)c3ncsc3-c3cccnc3)ccc2N1` [ALDHI-1010, N-(2-oxo-3,4-dihydro-1H-quinolin-6-yl)-5-(3-pyridyl)thiazole-4-carboxamide] gave a pIC50 of no more than 4.00.
In turn, `C[C@H](c1ccccc1)N(CCO)CCOc1ccc2c(c1)CCC(=O)N2` [ALDHI-3006, 6-[2-[2-hydroxyethyl-[(1R)-1-phenylethyl]amino]ethoxy]-3,4-dihydro-1H-quinolin-2-one] gave a pIC50 of no more than 4.00.
Next, `O=C1CCc2cc(NC(=O)c3scnc3-c3ccccc3F)ccc2N1` [ALDHI-1021, 4-(2-fluorophenyl)-N-(2-oxo-3,4-dihydro-1H-quinolin-6-yl)thiazole-5-carboxamide]: no more than 4.00.
Next, `O=C1CCc2cc(OCCN3CCCC3c3ccc(F)c(F)c3)ccc2N1` (stereo not drawn) [ALDHI-2039, 6-[2-[2-(3,4-difluorophenyl)pyrrolidin-1-yl]ethoxy]-3,4-dihydro-1H-quinolin-2-one]: no more than 4.00; `Cc1ccc(C2CCCN2CCOc2ccc3c(c2)CCC(=O)N3)cn1` (stereo not drawn) [ALDHI-2030, 6-[2-[2-(6-methyl-3-pyridyl)pyrrolidin-1-yl]ethoxy]-3,4-dihydro-1H-quinolin-2-one]: no more than 4.00; `CC1Cc2cc(OCCN3CCCC3c3cccc(F)c3)ccc2NC1=O` (stereo not drawn) [ALDHI-2048, 6-[2-[2-(3-fluorophenyl)pyrrolidin-1-yl]ethoxy]-3-methyl-3,4-dihydro-1H-quinolin-2-one]: no more than 4.00.
Compound `O=C1CCc2cc(OCCN(CCO)Cc3cccnc3)ccc2N1` [ALDHI-3005, 6-[2-[2-hydroxyethyl(3-pyridylmethyl)amino]ethoxy]-3,4-dihydro-1H-quinolin-2-one] gave a pIC50 of no more than 4.00.
